Measurements taken from patent US10370409B2, “Synthesis of libraries of peptide tertiary amides” (The Scripps Research Institute, priority 2011, dated 2019).
Read-outs that look alike come from different tables or passages of the source. Numbered stars: 1 amine (or outer) side, 2 acyl side, 3 side chain; on linkers, the order of the positions; unused ones are H or OH. Square brackets hold non-standard residues; d marks the D form. Peptide text beside a SMILES is read from it. X1 = COc1ccc(CN([C@@H](C)C(=O)[*:2])[*:1])cc1OC; Gly(Nα-4-F-phenethyl) = O=C(O)CNCCc1ccc(F)cc1; X3 = COc1ccc(CN(CC(=O)[*:2])[*:1])cc1OC; X2 = C[C@@H](C(=O)[*:2])N(CCCCN)[*:1]; Gly(N-propargyl) = C#CCNCC(=O)O; NFurfurylGly = O=C(O)CNCc1ccco1; Nlys = NCCCCNCC(=O)O

Tests used:
[1] = biological target: scFv PX4-4; assay: Fluorescence polarization / anisotropy titration of fluorescein-labelled compounds with PX4-4; assay type: binding, human; conditions: for Kd: FP titration with PX4-4
Protocol: Hits identification: All 17 hits were cleaved using CNBr and then characterized by MALDI mass spectrum. All 17 structures were resynthesized and examined against PX4-4 with FP assay. Only one hit was identified as binder with a Kd <10 μM.
(§1) The affinity of compound 13 for PX4-4 was determined by fluorescence anisotropy.
96 beads were chosen randomly from the library and placed individually into the wells of a 96-well filter plate. Each well was treated with fluorescein azide and a copper catalyst to attach fluorescein to the alkyne handle and then the compounds were cleaved from beads. The beads were filtered out and the soluble compounds were used for the fluorescence polarization (FP) assay. All 27 possible structures were found in this collection of molecules by tandem MS sequencing. Semi-quantitative binding constants for the PX4-4 antibody all 27 of the compounds were determined by titrating the compounds with the protein in the microwell format and monitoring the increase in FP. […] Most of the curves approached saturation, allowing for an accurate determination of the KD. In contrast, compound A41, corresponding to peptoid 14), was not saturated in the tested protein concentration range (100 nM to 400 μM) (FIG. 9B).

[2] = tested on: whole human IgG; assay: Fluorescence polarization selectivity test with a mixture of human IgG; assay type: binding; conditions: FP experiment repeated using a mixture of human IgG; FIG. 9B
Protocol: as §1
To address the selectivity of compounds A14 (N,R,S configuration), A7 (N,S,S), A68 (R,S,R), A41(N,N,N) and A24 (R,R,R) for PX4-4, the FP experiment was repeated using a mixture of human IgG as we did previously for compound 13. […] This implies that greater conformational flexibility is associated with binding promiscuity.

[3] = re-synthesized and purified compounds, read-out: Kd-re
[4] = semi-quantitative, compounds cleaved from single beads, 96-well microwell format, read-out: Kd-96

| SMILES | Kd [1, 3] [µM] | Kd [1, 4] [µM] | binding with whole human IgG [2] | saturation of FP binding curve with PX4-4 ([1]; protein concentration range 100 nM to 400 μM, FIG. 9B) |
| --- | --- | --- | --- | --- |
| C#CCN(CC(=O)N(CCCCN)CC(=O)N(CC(N)=O)Cc1ccco1)C(=O)CN(CCCCN)C(=O)CN(CCc1ccc(F)cc1)C(=O)[C@H](C)N(CCCCN)C(=O)[C@H](C)NCc1ccc(OC)c(OC)c1 [A7] (H-[X1][X2][Gly(Nα-4-F-phenethyl)][Nlys][Gly(N-propargyl)][Nlys][NFurfurylGly]-NH2) | 25.4 | 40.9 | no binding | – |
| [2H]C([2H])([2H])[C@]([2H])(C(=O)N(CCc1ccc(F)cc1)CC(=O)N(CCCCN)CC(=O)N(CC#C)CC(=O)N(CCCCN)CC(=O)N(CC(N)=O)Cc1ccco1)N(CCCCN)C(=O)[C@H](C)NCc1ccc(OC)c(OC)c1 [A14] | 19.1 | 27.5 | no binding | – |
| [2H]C([2H])([2H])[C@@]([2H])(NCc1ccc(OC)c(OC)c1)C(=O)N(CCCCN)[C@@]([2H])(C(=O)N(CCc1ccc(F)cc1)[C@@]([2H])(C(=O)N(CCCCN)CC(=O)N(CC#C)CC(=O)N(CCCCN)CC(=O)N(CC(N)=O)Cc1ccco1)C([2H])([2H])[2H])C([2H])([2H])[2H] [A24] | 233 | 117 | no binding | – |
| C#CCN(CC(=O)N(CCCCN)CC(=O)N(CC(N)=O)Cc1ccco1)C(=O)CN(CCCCN)C(=O)CN(CCc1ccc(F)cc1)C(=O)CN(CCCCN)C(=O)CNCc1ccc(OC)c(OC)c1 [A41] (H-[X3][Nlys][Gly(Nα-4-F-phenethyl)][Nlys][Gly(N-propargyl)][Nlys][NFurfurylGly]-NH2) | – | 113 | – | not saturated |
| [2H]C([2H])([2H])[C@@]([2H])(NCc1ccc(OC)c(OC)c1)C(=O)N(CCCCN)[C@@H](C)C(=O)N(CCc1ccc(F)cc1)[C@@]([2H])(C(=O)N(CCCCN)CC(=O)N(CC#C)CC(=O)N(CCCCN)CC(=O)N(CC(N)=O)Cc1ccco1)C([2H])([2H])[2H] [A68] | 65.2 | 43.2 | no binding | – |
